Laboratory results: patent publication US6391303B1, “Methods and compositions for inducing oral tolerance in mammals” (Emisphere Technologies, Inc., priority 1996, dated 2002)

B1: MBP: Myelin Basic Protein, encephalitogenic antigen fed orally alone as comparison in the EAE model (protein, UniProt P02686 1-304, looked up)
Myelin basic protein: MGNHAGKRELNAEKASTNSETNRGESEKKRNLGELSRTTSEDNEVFGEADANQNNGTSSQDTAVTDSKRTADPKNAWQDAHPADPGSRPHLIRLFSRDAPGREDNTFKDRPSESDELQTIQEDSAATSESLDVMASQKRPSQRHGSKYLATASTMDHARHGFLPRHRDTGILDSIGRFFGGDRGAPKRGSGKDSHHPARTAHYGSLPQKSHGRTQDENPVVHFFKNIVTPRTPPPSQGKGRGLSLSRFSWGAEGQRPGFGYGGRASDYKSAHKGFKGVDAQGTLSKIFKLGGRDSRSGSPMARR

Key:
[1] = system: anti-influenza antibodies (anti-HA); assay: Hemagglutination inhibition assay of pooled sera of primed mice fed influenza antigen with delivery agent; conditions: primed s.c. 5 μg vaccine day 0, oral 60 μg influenza antigen + 750 mg/kg delivery agent day 21
Description: Sera were collected every two weeks, pooled, and assayed for hemagglutination inhibition.
Hemagglutination Inhibition Assay for Anti-HA Antibodies:
If duplicates differ by one dilution, take the average. If they differ by more than one dilution, repeat the assay.
14) This titer provides the dilution of virus suspension which contains one HA unit per 50 μl. Divide this titer by 8 to get the dilution which will contain 4 HA units per 0.025 μl for the actual Hemagglutination Inhibition (HI) assay.
RDE* treat all test sera, reference sera and negative control sera on the day before the HI assay will be done.
Use flexible plates. Mark columns for duplicate dilution series of each test and control serum sample (normal naive serum and positive reference anti-serum). The plate should have 11 columns per row for dilutions plus column 12 for RBC alone.
To all wells, except column 1, add 25 μl of PBS.
To column 1 wells, add 50 μl of the appropriate RDE-treatment serum (test, positive, or negative control) sample.
Serially 2× dilute 25 μl of the sera across to column 11, mixing 7× per dilution.
Add 25 μl of diluted virus (containing 4 HA units per 25 μl) to all serum dilution wells, columns 1-11. Add 25 μl of PBS to column 21.
Cover plate, mix briefly on shaker, and incubate at r.t. for 30 minutes.7. […]
Read patterns immediately. […]

[2] = system: anti-ovalbumin IgG antibodies; assay: ELISA for serum anti-ovalbumin IgG in mice fed ovalbumin with delivery agent and challenged with ovalbumin in CFA; assay type: in vivo, BALB/c mice; conditions: for serum anti-ovalbumin IgG titer at week 4: single oral dose 25 mg ovalbumin with or without 600 mg/kg delivery agent, SC challenge with ovalbumin/CFA week 1, versus unfed; for serum anti-ovalbumin IgG titer at week 12: two oral doses 1 mg ovalbumin (weeks 0 and 4) with or without 600 mg/kg delivery agent, IM challenge with ovalbumin/CFA week 9
Description: A stock solution was prepared by dissolving Ovalbumin, 10 mg/ml, in 10 mM phosphate buffer (pH 7.4). This solution was diluted with buffer to provide 1.0 mg in a volume of 0.2 ml. Ten BALB/c female mice were administered two oral doses of 1 mg ovalbumin per mouse with 600 mg/kg of E94 delivery agent at weeks 0 and 4.
Systemic challenge was achieved by intramuscular (IM) injection of 2 mg/ml ovalbumin with 50% Complete Freund's Adjuvant (CFA) at week 9. Serum samples were collected at week 12 and assayed for anti-ovalbumin total IgG isotypes as described in Example 4 utilizing ovalbumin antigen instead of HA antigen. Assay data for Example 5 are found in FIG. 5.
A stock solution of ovalbumin was prepared by dissolving Ovalbumin, 125 mg/ml, in 10 mM phosphate buffer (pH 7.4). This solution was used to provide 25 mg in a volume of 0.2 ml. Five BALB/c mice were administered a single oral dose of 25 mg ovalbumin per mouse with 600 mg/kg of E94 delivery agent.
Challenge was achieved by subcutaneous (SC) injection of 0.1 mg ovalbumin with 50% Complete Freund's Adjuvant (CFA) at week 1. Serum samples were collected at week 4 and assayed for anti-ovalbumin total IgG isotypes as described in Example 5. Assay data for Example 6 are found in FIG. 6.

[3] = system: anti-SRBC serum IgG antibodies; assay: Indirect hemagglutination assay for anti-SRBC serum IgG in mice fed SRBC with delivery agent; assay type: in vivo, BALB/c mice
Description: Five female BALB/c mice were fed a single dose suspension of 2.5×10^9 sheep red blood cells (SRBC)+E94 (600 mg/Kg) in Phosphate Buffered Saline (PBS), 0.1 M phosphate and 0.15 M sodium chloride, pH 7.2. Seven days after completion of oral dosing, mice were primed by footpad injection of 1×10^7 SRBC. They were bled on day 14. On day 21 the mice were tested in a Delayed Type Hypersensitivity (DTH) test through challenge by injection in the footpad not previously used in priming with 1×10^8 SRBC. Footpad thickness was measured before and 24 hours after challenge using a Vernier caliper. On day 28 they were bled again. […] (See assay description below.) Prior to assaying, the samples were heat inactivated at 56/C. for 60 minutes. Assay data for Example 1 are found in FIG. 2. […]
a) In a 15 ml tube, add 11μ of goat anti-mouse IgG (Fcy specific) (2.3 mg/ml) to 5.05 ml PBS (1/460 dilution; approximate amount needed per plate) In a second tube, add 4μ of goat anti-rabbit IgG (Fc specific) to 1.8 ml of PBS approximate amount needed (per plate) […]

[4] = system: Experimental Autoimmune Encephalomyelitis (EAE); conditions: for mean day of onset of paralysis: single oral dose 1.0 mg MBP alone or with delivery agent, day after challenge; for clinical disease (Mean Clinical Score) of EAE: single oral dose 1.0 mg MBP with delivery agent, footpad challenge 0.05 mg MBP/CFA, scale 0 to 5
Description: Two days after the (last) oral dose, all groups were challenged in the footpad with 0.05 mg of MBP emulsified with Complete Freund's Adjuvant containing Mycobacterium tuberculosis H37Ra, 4 mg/ml. Clinical signs of disease were observed starting on Day 11 after the challenge and rated on a scale of 0 (no disease) to 5 (death).

[5] = system: anti-SRBC serum IgM antibodies; assay: Direct hemagglutination assay for anti-SRBC serum IgM in mice fed SRBC with delivery agent; assay type: in vivo, BALB/c mice
Description: Five female BALB/c mice were fed a single dose suspension of 2.5×10^9 sheep red blood cells (SRBC)+E94 (600 mg/Kg) in Phosphate Buffered Saline (PBS), 0.1 M phosphate and 0.15 M sodium chloride, pH 7.2. Seven days after completion of oral dosing, mice were primed by footpad injection of 1×10^7 SRBC. They were bled on day 14. On day 21 the mice were tested in a Delayed Type Hypersensitivity (DTH) test through challenge by injection in the footpad not previously used in priming with 1×10^8 SRBC. Footpad thickness was measured before and 24 hours after challenge using a Vernier caliper. On day 28 they were bled again. Sera were placed into Eppendorf tubes and assayed for anti-SRBC IgM (days 14 and 28) and anti-SRBC IgG (day 28) by the direct and indirect hemagglutination assays, respectively. (See assay description below.) Prior to assaying, the samples were heat inactivated at 56/C. for 60 minutes. Assay data for Example 1 are found in FIG. 2. […]
a) Dilute 10μ of sera with 190μ of PBS, pH 7.2 (1/20) b) On a rigid, U-bottom microtiter plate, mark wells across the rows for dilutions of samples 40; 80; 160; . . . […]

DTH response to SRBC = assay: Delayed Type Hypersensitivity (DTH) footpad thickness test in mice fed SRBC with delivery agent; assay type: in vivo, BALB/c mice; conditions: single oral dose 2.5×10^9 SRBC + delivery agent 600 mg/Kg; versus unfed control and SRBC alone
Description: Five female BALB/c mice were fed a single dose suspension of 2.5×10^9 sheep red blood cells (SRBC)+E94 (600 mg/Kg) in Phosphate Buffered Saline (PBS), 0.1 M phosphate and 0.15 M sodium chloride, pH 7.2. Seven days after completion of oral dosing, mice were primed by footpad injection of 1×10^7 SRBC. They were bled on day 14. On day 21 the mice were tested in a Delayed Type Hypersensitivity (DTH) test through challenge by injection in the footpad not previously used in priming with 1×10^8 SRBC. Footpad thickness was measured before and 24 hours after challenge using a Vernier caliper. On day 28 they were bled again. Sera were placed into Eppendorf tubes and assayed for anti-SRBC IgM (days 14 and 28) and anti-SRBC IgG (day 28) by the direct and indirect hemagglutination assays, respectively. (See assay description below.) Prior to assaying, the samples were heat inactivated at 56/C. for 60 minutes. Assay data for Example 1 are found in FIG. 2.
Five female BALB/c mice were fed a single dose suspension of 2.5×10^9 sheep red blood cells (SRBC)+[…] (600 mg/Kg) as described in Example 7. Seven days after completion of oral dosing, mice were primed by footpad injection of 1×10^7 SRBC. On day 14. footpad thickness was measured according to the Delayed Type Hypersensitivity (DTH) method outlined in Example 1. The DTH data for Example 8 are found in FIG. 8. […]

[6] = system: DTH response to ovalbumin; assay: DTH footpad thickness assay in mice fed ovalbumin with delivery agent; assay type: in vivo, BALB/c mice; conditions: single oral dose 1.0 mg ovalbumin with or without 600 mg/kg delivery agent; SC challenge ovalbumin/CFA week 3; versus unfed
Description: A stock solution of ovalbumin was prepared by dissolving Ovalbumin, 10 mg/ml in 10 mM phosphate buffer (pH 7.4). This solution was diluted 2-fold and used to provide 1.0 mg in a volume of 0.2 ml. Five BALB/c mice were administered a single oral dose of 1.0 mg ovalbumin per mouse with 600 mg/kg of E702 delivery agent.
Challenge was achieved by subcutaneous (SC) injection of 0.1 mg ovalbumin with 50% Complete Freund's Adjuvant (CFA) at week 3. DTH assay was performed as described in Examples 1 and 8. Assay data for Example 10 are found in FIG. 9.

[7] = single oral dose SRBC + delivery agent 600 mg/Kg, versus unfed control (Comparative Example D)

Molecule | serum anti-ovalbumin IgG titer at week 4 [2] | serum anti-ovalbumin IgG titer at week 12 [2] | mean day of onset of paralysis [4] [days] | clinical disease (Mean Clinical Score) of EAE [4] | DTH response (footpad thickness), Day 14 (DTH response to SRBC) | DTH response (footpad thickness), week 5 [6] | also measured
O=C(N[C@@H](Cc1ccccc1)C(=O)O)c1ccccc1O [E94, N-salicyloyl phenylalanine] | significantly suppressed serum anti-Ova IgG titers | significantly suppressed compared to both unfed and antigen-alone fed | 15 | suppression of clinical disease |  |  | suppression of anti-influenza antibody production (HI titer) relative to control fed only influenza antigen [1]: more than 2 fold; anti-SRBC IgG titer, Day 28 [3, 7]: lower than the Comparative Example D control (90% significance); anti-SRBC IgM titer, Day 14 ([5]; single oral dose 2.5×10^9 SRBC + delivery agent 600 mg/Kg, primed day 7, versus unfed control and SRBC alone): suppressed IgM on Day 14 relative to unfed control (Comparative Example D) significantly more than without delivery agent; anti-SRBC IgM titer, Day 28 [5, 7]: still lower than that for the Comparative Example D control (90% significance)
O=C(O)CCCc1ccc(NS(=O)(=O)c2ccccc2)cc1 [E198, 4-[4-(N-benzenesulfonyl)]aminophenyl butyric acid] |  |  |  |  | suppressed the DTH response on Day 14 relative to unfed control (Comparative Example L) significantly more than without delivery agent |  | 
COc1ccccc1C(=O)Nc1ccc(CCC(=O)O)cc1 [E594, 3-[4-(N-2 methoxybenzoyl)]aminophenyl propionic acid] |  |  |  |  | suppressed the DTH response on Day 14 relative to unfed control (Comparative Example L) significantly more than without delivery agent |  | anti-SRBC IgG titer, Day 14 ([3]; single oral dose 2.5×10^9 SRBC + delivery agent 600 mg/Kg, versus unfed control and SRBC alone): suppressed IgG on Day 14 relative to unfed control (Comparative Example K) significantly more than without delivery agent
COc1cccc(C(=O)Nc2ccc(CCC(=O)O)cc2)c1OC [E702, 3-[4-(N-2,3-dimethoxybenzoyl)]aminophenyl propionic acid] |  |  | 15 | suppression of clinical disease |  | significantly suppressed response in the DTH | 
Ovalbumin: Ovalbumin antigen fed orally alone, without delivery agent, as comparative example | suppression was not statistically significant | the same as in mice given the intramuscular dose alone |  |  |  | not suppressed | 
B1 |  |  | 13 |  |  |  | 
